According to US6323219A, “Methods for treating immunomediated inflammatory disorders” (Ortho-McNeil Pharmaceutical, Inc., priority 1999, dated 2001):
Where two headings read alike, the source gives them in different places.

Experiments:
[1] = target: T1, Human Skin Chymase (Homo sapiens, UniProt P23946); assay: Chymase 10 μM Screen Method; type: biochemical; settings: read-out: Chymase % Inhibition (10 μM)
T1 construct: purchased Cortex Biochem CP1129; host or cells: human skin
T1 sequence (P23946 22-247): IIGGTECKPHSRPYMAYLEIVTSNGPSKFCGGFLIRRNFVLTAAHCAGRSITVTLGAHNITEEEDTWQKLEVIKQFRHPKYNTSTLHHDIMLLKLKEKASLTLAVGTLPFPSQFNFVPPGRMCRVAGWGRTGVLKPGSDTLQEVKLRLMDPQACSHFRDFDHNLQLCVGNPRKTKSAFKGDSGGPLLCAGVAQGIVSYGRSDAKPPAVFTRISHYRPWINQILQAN
Description: The enzyme reaction is started by the addition of enzyme ([E]: 1.0 nM human Lung Tryptase; Cortex Biochem CP3033). Data is collected over a period of 30 min. and the initial rate of substrate hydrolysis (Vo (mOD/min)) is calculated. Inhibition is calculated by comparing to wells containing no inhibitor (vehicle) and IC50 s are determined using a four parameter fit logistics model. […] Data is collected over a period of 30 min. and the initial rate of substrate hydrolysis (Vo (mOD/min)) is calculated. Inhibition is calculated by comparing to wells containing no inhibitor (vehicle) and IC50 s are determined using a four parameter fit logistics model. […] The enzyme reaction is started by the addition of enzyme ([E]: 5.0 nM Human Skin Chymase; Cortex Biochem CP1129), and 3 hours following that addition data is collected. After subtracting background (no enzyme addition), inhibition is calculated by comparing to wells containing no inhibitor (vehicle).

[2] = target: human Lung Tryptase; assay: Tryptase IC50 Method; type: biochemical; settings: 37° C., 1.0 nM enzyme, 500 μM substrate
Description: (§1) The enzyme reaction is started by the addition of enzyme ([E]: 1.0 nM human Lung Tryptase; Cortex Biochem CP3033). Data is collected over a period of 30 min. and the initial rate of substrate hydrolysis (Vo (mOD/min)) is calculated. Inhibition is calculated by comparing to wells containing no inhibitor (vehicle) and IC50 s are determined using a four parameter fit logistics model. […] The enzyme reaction is started by the addition of enzyme ([E]: 10.0 nM Human Skin Chymase; Cortex Biochem CPl 129). Data is collected over a period of 30 min. and the initial rate of substrate hydrolysis (Vo (mOD/min)) is calculated. Inhibition is calculated by comparing to wells containing no inhibitor (vehicle) and IC50 s are determined using a four parameter fit logistics model. Chymase 10 μM Screen Method: The optical density at 405 nm due to hydrolysis of synthetic chromogenic peptide substrates ([S]: 500 μM Suc-Ala-Ala-Pro-Phe-pNA; Bachem L-1400) is measured in the presence and absence of inhibitor compounds of formula (I) with a microplate reader at room temperature. The enzyme reaction is started by the addition of enzyme ([E]: 5.0 nM Human Skin Chymase; Cortex Biochem CP1129), and 3 hours following that addition data is collected. After subtracting background (no enzyme addition), inhibition is calculated by comparing to wells containing no inhibitor (vehicle).

[3] = Bioavailability, ex vivo thrombin inhibition assay after i.v. and p.o. dosing; type: in vivo; settings: rat, plasma, po, male rats
Description: Bioavailability was determined by an ex vivo thrombin inhibition assay which incorporated hydrolysis rates from drug administered both i.v. and p.o. In this assay male rats were prepared as described above with a Teflon tube implanted in their femoral artery. Blood was drawn from the animals 15 min before dosing with the inhibitor (0.25 mL blood was drawn into a syringe containing 0.025 mL of Sigma sodium citrate) and set aside for analysis. The test compound was dispersed in water (0.3-3.0 mg/mL final conc.) and delivered to the animals (0.25 mL) either i.v. or p.o.. […] This sample was analyzed for thrombin inhibition using the chromogenic assay, described below.
The rate of increase in absorbance at 405 nm of synthetic peptides (50 μM Spectozyme® TH (H-D-HHT-Ala-Arg-pNA-2AcOH), American Diagnostica) was measured in the presence of plasma with a microplate reader (Molecular Devices) at 37° C. using an aqueous buffer (10 mM Tris, 10 mM Hepes, 150 mM NaCI, 0.1% PEG; pH 7.4). […] Datum were collected over a 30 min period and the initial rate of substrate hydrolysis (VO (mOD/min)) was calculated with an analysis program (Softmax, Molecular Devices). […]
The percentage of thrombin inhibition in the treated animals was calculated by comparing the V0 prior to treatment with the V0 obtained from samples collected after treatment. […]

[4] = in vivo; design: species or system male rats (Long Evans); settings: rat, iv
Description: Since the compounds of the formula (l) are also potent thrombin inhibitors (see U.S. Pat. No. 5,523,308), an ex vivo thrombin assay was conducted to determine the duration of action of the compounds of Formula I. For this i.v. assay male rats (Long Evans, 350-500 g) were implanted with a teflon cannulae via the femoral artery while under anesthesia (pentobarbital i.p., 35 mg/kg). After surgery, the animals were individually housed in standard cages, fed with rat chow (Hanlan, #8604) and continuously infused with physiological saline to maintain arterial patency, (0.5 mL/h, intra arterial) using a spring-shielded swiveling tether connected to an infusion system. The animals were allowed to recover for at least 24 h after the surgical procedure.
A sample of blood was drawn from the animals 15 min before dosing with the inhibitor (0.25 mL blood is drawn into a syringe containing 0.025 mL of Sigma sodium citrate). The test compound was dispersed in water and delivered to the animal (0.25 mL) via the femoral vein. The inhibitor was given at a concentration (mg/mL) which produced 80% inhibition of VO in a plasma sample at 5 min after infusion. Blood was drawn from the arterial line (blood:sodium citrate, 0.25/0.025 mL ) at regular intervals after dosing (5, 10, 15, 30, 60 and 120 min) and placed in a centrifuge tube. A plasma sample was obtained by centrifuging the blood at 10,000 rpm for 5 min. This sample is analyzed for thrombin inhibition using the chromogenic assay, described below.
The rate of increase in absorbance at 405 nm of synthetic peptides (50 μM Spectozyme® TH (H-D-HHT-Ala-Arg-pNA-2AcOH), American Diagnostica) is measured in the presence of plasma with a microplate reader (Molecular Devices) at 37° C. using an aqueous buffer (10 mM Tris, 10 mM Hepes, 150 mM NaCl, 0.1% PEG; pH 7.4). The buffer was added to the plasma samples (1:1) dilution prior to delivery to the microplate (1:5 and 1:50 for final plasma dilutions of 1:10 and 1:100 respectively) followed by the enzyme (1 nM human α thrombin). Datum was collected over a 30 min period and the initial rate of substrate hydrolysis (V0 (mOD/min)) was calculated with an analysis program (Softmax, Molecular Devices).
The time to half plasma elimination (t 1/2) was calculated from the slope of VO vs. time, using the following equation: […]. These datum are presented in Table L. In Table L, the compound # corresponds to the compound number described in U.S. Pat. No. 5,523,308.

[5] = target: T1, Human Skin Chymase; assay: Chymase IC50 Method; type: biochemical; settings: 37° C., 10.0 nM enzyme, 500 μM substrate
Description: as §1

Compound | inhibition at 10 µM ([1]; 10 μM, room temperature, 5.0 nM enzyme, 3 hours) [%] | IC50 [2] [µM] | bioavailability [3] [%] | half-life [4] [min] | inhibition at 10 µM [1] [%] | IC50 [5] [µM]
CN[C@H](Cc1ccccc1)C(=O)N1CCC[C@H]1C(=O)N[C@@H](CCCNC(=N)N)C(=O)c1nc2ccccc2s1 [Compound 1] | 2 | 0.0075 | 1.2 | 19 | – | –
CN[C@H](Cc1ccccc1)C(=O)N1CCC[C@H]1C(=O)N[C@@H](Cc1ccccc1)C(=O)c1nc2ccccc2s1 [Compound 38] | – | – | – | – | 94 | 2.7
